Data reported in US7977045B2, “Aqueous-based pharmaceutical composition” (Aventis Pharmaceuticals Inc., priority 1996, dated 2011).

Experiment: Positron emission tomography of nasal deposition and retention of TAA after spraying the composition
Format: in vivo, human
Protocol: A dose of the composition can be delivered to a human patient by spraying the composition into each of the patient's nasal cavities. For dose delivery, the pre-compression metering pump (Valois VP7/100S) is placed in a patient's nostril and is then actuated by the patient, resulting in a spray into the nasal cavity. After initial priming, each actuation of the pump delivers from the nasal actuator about 100 mg of composition containing about 55 mcg of TAA. Each bottle of composition will provide at least about 120 metered doses. For the exemplified compositions, the recommended once-daily dosing for adults and children 12 years and older begins at about 220 mcgs of TAA, equivalent to two sprays in each nostril.
A composition comprising the formulation of Examples 1 and 2 was administered to two volunteer patients. Post administration, the patients were evaluated by positron emission tomography in order to determine 1) the amount of time it took for the maximum dose of the TAA medicament to be delivered to various regions of interest within the nasal cavity, and 2) the amount of TAA medicament deposited on the regions of interest over a two hour time period. For purposes of the evaluation, the volume of the head region was segmented into 104 distinct regions of interest. […] The results of evaluation indicate a rapid distribution of the TAA medicament to the target regions of the nose.
The evaluation included also a determination of the percentage of the TAA medicament remaining on the target sites two hours after the it was administered to each of the patients. This percentage was determined by dividing the amount remaining in each region of interest by the total amount remaining in the 104 regions of interest.

[1] = first volunteer, at maximum concha contact
[2] = first volunteer, over a two-hour period
[3] = first volunteer, two hours post administration, share of total remaining in 104 regions
[4] = other (second) volunteer, post dose
[5] = second volunteer, two hours post administration

CC1(C)O[C@@H]2C[C@H]3[C@@H]4CCC5=CC(=O)C=C[C@]5(C)[C@@]4(F)[C@@H](O)C[C@]3(C)[C@]2(C(=O)CO)O1 [TAA, triamcinolone acetonide]
dose directly deposited on the target sites (frontal cavity, frontal sinus, maxillary sinuses, superior and inferior concha) (both volunteers, amount in region divided by total amount remaining in the 104 regions of interest, two hours): greater than 85% | maximum amount of TAA medicament in contact with the frontal cavity region (first volunteer): about 41% | maximum amount of the dose deposited into the frontal sinus (first volunteer): approximately 3.5% | maximum amount of the dose deposited into the maxillary sinuses (first volunteer): ~3.9% | time to clearance of TAA medicament from the frontal sinus (first volunteer): ≤ 1 h | amount of total dose in contact with the inferior concha [1]: About 46% | amount of total dose in contact with the superior concha [1]: about 19% | amount of total dose remaining in the concha tissues (constant value) (first volunteer, final time period): 3.4-4% | maximum amount of TAA medicament in contact with the concha regions, % of total dose delivered to the nose (first volunteer, intranasal spray of formulation of Examples 1 and 2, PET): about 65% | dose deposited in the maxillary sinus region [2]: about 3% | dose deposited on the frontal sinus [2]: about 1.2% | time of maximum amount in contact with the concha regions (first volunteer, post dose): about 45 seconds | time of maximum amount in contact with the frontal cavity region (first volunteer, post dose): about 45 seconds | time of maximum deposit in the frontal and maxillary sinuses (first volunteer, post dose): ≤ 30 s | medicament still present in the maxillary sinuses (first volunteer, two hour acquisition sampling time): approximately 1% | total TAA medicament remaining deposited in the frontal cavity (first volunteer, two hours after administration, share of total remaining in 104 regions): about 47.9% | amount remaining in the concha region (inferior plus superior) (first volunteer, two hours post administration): about 36.4% | total medicament deposited in the inferior concha region [3]: about 27.8% | total medicament deposited in the superior concha region [3]: about 8.6% | amount in the frontal cavity region (constant level) (first volunteer, two hours post-dose): about 12% | sum of percentages remaining on the target sites (dose deposited directly onto target tissues) (first volunteer, two-hour serial sampling period): about 88.5% | maximum amount deposited in the frontal sinus (other (second) volunteer): around 3.5% | maximum amount deposited in the maxillary sinus (other (second) volunteer): about 2% | maximum amount of TAA medicament in contact with the frontal cavity, % of total dose delivered to the nose (other (second) volunteer): about 55% | part of the maximum concha amount associated with the inferior concha (other (second) volunteer): about 75% | part of the maximum concha amount associated with the superior concha (other (second) volunteer): about 25% | administered dose still in contact with the concha regions (other (second) volunteer, about two hours post-administration): 6-8% | dose still resident in the frontal/nasal cavity (other (second) volunteer, after two hours): approximately 22% | maximum amount of the drug in contact with the concha regions, % of total dose delivered to the nose (other (second) volunteer, intranasal spray of formulation of Examples 1 and 2, PET): about 53% | time of maximum amount in contact with the frontal cavity [4]: ≤ 30 s | time of maximum amount in contact with the inferior concha region [4]: about 3.5 minutes | time of maximum amount in contact with the superior concha region [4]: about 25 seconds | time of maximum deposit in the maxillary and frontal sinuses [4]: ≤ 30 s | sum of percentages remaining on the target sites (dose deposited directly onto target tissues) (second volunteer, two hour serial sampling period): about 85.6% | dose in the frontal sinus [5]: about 1.6% | dose in the maxillary sinus [5]: about 1.4% | dose remaining deposited on the inferior concha [5]: About 23.5% | dose remaining deposited on the superior concha [5]: about 6.9% | total percentage of the dose remaining deposited on the concha region [5]: about 30.4% | dose remaining deposited in the frontal cavity (second volunteer, two hours post-drug administration, share of total remaining in 104 regions): about 52.2%
